Results taken from ChEMBL document CHEMBL1124300, “Deletion sequences of salmon calcitonin that retain the essential biological and conformational features of the intact molecule” (1988).
Residues, ends and D or L forms follow the SMILES beside them.

The molecules below were run on Rattus norvegicus (assay: In vivo hypocalcemic activity measuring the hormone-induced decrease of blood calcium levels in rats).
Format: functional
Molecule `CC(C)C[C@H](NC(=O)[C@H](CCCCN)NC(=O)CNC(=O)[C@H](CC(C)C)NC(=O)[C@@H](NC(=O)[C@@H]1CSSC[C@H](N)C(=O)N[C@@H](CO)C(=O)N[C@@H](CC(N)=O)C(=O)N[C@@H](CC(C)C)C(=O)N[C@@H](CO)C(=O)N[C@@H]([C@@H](C)O)C(=O)N1)C(C)C)C(=O)N[C@@H](CO)C(=O)N[C@@H](CCC(N)=O)C(=O)N[C@@H](CCC(=O)O)C(=O)N[C@@H](CC(C)C)C(=O)N[C@@H](Cc1c[nH]cn1)C(=O)N[C@@H](CCCCN)C(=O)N[C@@H](CC(C)C)C(=O)N[C@@H](CCC(N)=O)C(=O)N[C@H](C(=O)N1CCC[C@H]1C(=O)N[C@@H](CCCN=C(N)N)C(=O)N[C@H](C(=O)N[C@@H](CC(N)=O)C(=O)N[C@H](C(=O)NCC(=O)N[C@@H](CO)C(=O)NCC(=O)N[C@H](C(=O)N1CCC[C@H]1C(N)=O)[C@@H](C)O)[C@@H](C)O)[C@@H](C)O)[C@@H](C)O` (HELM PEPTIDE1{C.S.N.L.S.T.C.V.L.G.K.L.S.Q.E.L.H.K.L.Q.T.P.R.T.N.T.G.S.G.T.P.[am]}$PEPTIDE1,PEPTIDE1,1:R3-7:R3$$$V2.0) has a Hypocalcemic activity of 5200 IU mg-1. Molecule `CC(C)C[C@H](NC(=O)[C@H](CCCCN)NC(=O)CNC(=O)[C@H](CC(C)C)NC(=O)[C@@H](NC(=O)[C@@H]1CSSC[C@H](N)C(=O)N[C@@H](CO)C(=O)N[C@@H](CC(N)=O)C(=O)N[C@@H](CC(C)C)C(=O)N[C@@H](CO)C(=O)N[C@@H]([C@@H](C)O)C(=O)N1)C(C)C)C(=O)N[C@@H](CO)C(=O)N[C@@H](CCC(N)=O)C(=O)N[C@@H](CCC(=O)O)C(=O)N[C@@H](CC(C)C)C(=O)N[C@@H](Cc1c[nH]cn1)C(=O)N[C@@H](CCCCN)C(=O)N[C@@H](CC(C)C)C(=O)N[C@@H](CCC(N)=O)C(=O)N[C@@H](Cc1ccc(O)cc1)C(=O)N1CCC[C@H]1C(=O)N[C@@H](CCCN=C(N)N)C(=O)N[C@H](C(=O)N[C@@H](CC(N)=O)C(=O)N[C@H](C(=O)NCC(=O)N[C@@H](CO)C(=O)NCC(=O)N[C@H](C(=O)N1CCC[C@H]1C(N)=O)[C@@H](C)O)[C@@H](C)O)[C@@H](C)O` (HELM PEPTIDE1{C.S.N.L.S.T.C.V.L.G.K.L.S.Q.E.L.H.K.L.Q.Y.P.R.T.N.T.G.S.G.T.P.[am]}$PEPTIDE1,PEPTIDE1,1:R3-7:R3$$$V2.0) has a Hypocalcemic activity of 5500 IU mg-1. With `CC(C)C[C@H](NC(=O)[C@H](CCCCN)NC(=O)CNC(=O)[C@H](CC(C)C)NC(=O)[C@@H](NC(=O)[C@@H]1CSSC[C@H](N)C(=O)N[C@@H](CO)C(=O)N[C@@H](CC(N)=O)C(=O)N[C@@H](CC(C)C)C(=O)N[C@@H](CO)C(=O)N[C@@H]([C@@H](C)O)C(=O)N1)C(C)C)C(=O)N[C@@H](CO)C(=O)N[C@@H](CCC(N)=O)C(=O)N[C@@H](CCC(=O)O)C(=O)N[C@@H](CC(C)C)C(=O)N[C@@H](Cc1c[nH]cn1)C(=O)N[C@@H](CCCCN)C(=O)N[C@@H](CC(C)C)C(=O)N[C@H](C(=O)N[C@@H](Cc1ccc(O)cc1)C(=O)N1CCC[C@H]1C(=O)N[C@@H](CCCN=C(N)N)C(=O)N[C@H](C(=O)N[C@@H](CC(N)=O)C(=O)N[C@H](C(=O)NCC(=O)N[C@@H](CO)C(=O)NCC(=O)N[C@H](C(=O)N1CCC[C@H]1C(N)=O)[C@@H](C)O)[C@@H](C)O)[C@@H](C)O)[C@@H](C)O` (HELM PEPTIDE1{C.S.N.L.S.T.C.V.L.G.K.L.S.Q.E.L.H.K.L.T.Y.P.R.T.N.T.G.S.G.T.P.[am]}$PEPTIDE1,PEPTIDE1,1:R3-7:R3$$$V2.0) the Hypocalcemic activity was 4000 IU mg-1. Molecule `CC(C)C[C@H](NC(=O)[C@H](CCCCN)NC(=O)CNC(=O)[C@H](CC(C)C)NC(=O)[C@@H](NC(=O)[C@@H]1CSSC[C@H](N)C(=O)N[C@@H](CO)C(=O)N[C@@H](CC(N)=O)C(=O)N[C@@H](CC(C)C)C(=O)N[C@@H](CO)C(=O)N[C@@H]([C@@H](C)O)C(=O)N1)C(C)C)C(=O)N[C@@H](CO)C(=O)N[C@@H](CCC(N)=O)C(=O)N[C@@H](CCC(=O)O)C(=O)N[C@@H](CC(C)C)C(=O)N[C@@H](Cc1c[nH]cn1)C(=O)N[C@@H](CCCCN)C(=O)N1CCC[C@H]1C(=O)N[C@@H](CCCN=C(N)N)C(=O)N[C@H](C(=O)N[C@@H](CC(N)=O)C(=O)N[C@H](C(=O)NCC(=O)N[C@@H](CO)C(=O)NCC(=O)N[C@H](C(=O)N1CCC[C@H]1C(N)=O)[C@@H](C)O)[C@@H](C)O)[C@@H](C)O` (HELM PEPTIDE1{C.S.N.L.S.T.C.V.L.G.K.L.S.Q.E.L.H.K.P.R.T.N.T.G.S.G.T.P.[am]}$PEPTIDE1,PEPTIDE1,1:R3-7:R3$$$V2.0) has a Hypocalcemic activity of 6300 IU mg-1. `CC(C)C[C@H](NC(=O)[C@H](CCCCN)NC(=O)CNC(=O)[C@H](CC(C)C)NC(=O)[C@@H](NC(=O)[C@@H]1CSSC[C@H](N)C(=O)N[C@@H](CO)C(=O)N[C@@H](CC(N)=O)C(=O)N[C@@H](CC(C)C)C(=O)N[C@@H](CO)C(=O)N[C@@H]([C@@H](C)O)C(=O)N1)C(C)C)C(=O)N[C@@H](CO)C(=O)N[C@@H](CCC(N)=O)C(=O)N[C@@H](CCC(=O)O)C(=O)N[C@@H](CC(C)C)C(=O)N[C@@H](Cc1c[nH]cn1)C(=O)N[C@@H](CCCCN)C(=O)N[C@@H](CCC(N)=O)C(=O)N[C@H](C(=O)N[C@@H](Cc1ccc(O)cc1)C(=O)N1CCC[C@H]1C(=O)N[C@@H](CCCN=C(N)N)C(=O)N[C@H](C(=O)N[C@@H](CC(N)=O)C(=O)N[C@H](C(=O)NCC(=O)N[C@@H](CO)C(=O)NCC(=O)N[C@H](C(=O)N1CCC[C@H]1C(N)=O)[C@@H](C)O)[C@@H](C)O)[C@@H](C)O)[C@@H](C)O` (HELM PEPTIDE1{C.S.N.L.S.T.C.V.L.G.K.L.S.Q.E.L.H.K.Q.T.Y.P.R.T.N.T.G.S.G.T.P.[am]}$PEPTIDE1,PEPTIDE1,1:R3-7:R3$$$V2.0) was tested, and the Hypocalcemic activity was 8000 IU mg-1. `CC(C)C[C@H](NC(=O)[C@H](CCCCN)NC(=O)CNC(=O)[C@H](CC(C)C)NC(=O)[C@@H](NC(=O)[C@@H]1CSSC[C@H](N)C(=O)N[C@@H](CO)C(=O)N[C@@H](CC(N)=O)C(=O)N[C@@H](CC(C)C)C(=O)N[C@@H](CO)C(=O)N[C@@H]([C@@H](C)O)C(=O)N1)C(C)C)C(=O)N[C@@H](CO)C(=O)N[C@@H](CCC(N)=O)C(=O)N[C@@H](CCC(=O)O)C(=O)N[C@@H](CC(C)C)C(=O)N[C@@H](Cc1c[nH]cn1)C(=O)N[C@@H](CCCCN)C(=O)N[C@H](C(=O)N[C@@H](Cc1ccc(O)cc1)C(=O)N1CCC[C@H]1C(=O)N[C@@H](CCCN=C(N)N)C(=O)N[C@H](C(=O)N[C@@H](CC(N)=O)C(=O)N[C@H](C(=O)NCC(=O)N[C@@H](CO)C(=O)NCC(=O)N[C@H](C(=O)N1CCC[C@H]1C(N)=O)[C@@H](C)O)[C@@H](C)O)[C@@H](C)O)[C@@H](C)O` (HELM PEPTIDE1{C.S.N.L.S.T.C.V.L.G.K.L.S.Q.E.L.H.K.T.Y.P.R.T.N.T.G.S.G.T.P.[am]}$PEPTIDE1,PEPTIDE1,1:R3-7:R3$$$V2.0) showed a Hypocalcemic activity of 6400 IU mg-1. Work on `CC(C)C[C@H](NC(=O)[C@H](CCCCN)NC(=O)CNC(=O)[C@H](CC(C)C)NC(=O)[C@@H](NC(=O)[C@@H]1CSSC[C@H](N)C(=O)N[C@@H](CO)C(=O)N[C@@H](CC(N)=O)C(=O)N[C@@H](CC(C)C)C(=O)N[C@@H](CO)C(=O)N[C@@H]([C@@H](C)O)C(=O)N1)C(C)C)C(=O)N[C@@H](CO)C(=O)N[C@@H](CCC(N)=O)C(=O)N[C@@H](CCC(=O)O)C(=O)N[C@@H](CC(C)C)C(=O)N[C@@H](Cc1c[nH]cn1)C(=O)N[C@@H](CCCCN)C(=O)N[C@@H](Cc1ccc(O)cc1)C(=O)N1CCC[C@H]1C(=O)N[C@@H](CCCN=C(N)N)C(=O)N[C@H](C(=O)N[C@@H](CC(N)=O)C(=O)N[C@H](C(=O)NCC(=O)N[C@@H](CO)C(=O)NCC(=O)N[C@H](C(=O)N1CCC[C@H]1C(N)=O)[C@@H](C)O)[C@@H](C)O)[C@@H](C)O` (HELM PEPTIDE1{C.S.N.L.S.T.C.V.L.G.K.L.S.Q.E.L.H.K.Y.P.R.T.N.T.G.S.G.T.P.[am]}$PEPTIDE1,PEPTIDE1,1:R3-7:R3$$$V2.0) yielded a Hypocalcemic activity of 7100 IU mg-1. For `CC(C)C[C@H](NC(=O)[C@H](CCCCN)NC(=O)CNC(=O)[C@H](CC(C)C)NC(=O)[C@@H](NC(=O)[C@@H]1CSSC[C@H](N)C(=O)N[C@@H](CO)C(=O)N[C@@H](CC(N)=O)C(=O)N[C@@H](CC(C)C)C(=O)N[C@@H](CO)C(=O)N[C@@H]([C@@H](C)O)C(=O)N1)C(C)C)C(=O)N[C@@H](CO)C(=O)N[C@@H](CCC(N)=O)C(=O)N[C@@H](CCC(=O)O)C(=O)N[C@@H](CC(C)C)C(=O)N[C@@H](Cc1c[nH]cn1)C(=O)N[C@@H](CCCCN)C(=O)N[C@@H](CC(C)C)C(=O)N[C@@H](CCC(N)=O)C(=O)N[C@H](C(=O)N[C@@H](Cc1ccc(O)cc1)C(=O)N1CCC[C@H]1C(=O)N[C@@H](CCCNC(=N)N)C(=O)N[C@H](C(=O)N[C@@H](CC(N)=O)C(=O)N[C@H](C(=O)NCC(=O)N[C@@H](CO)C(=O)NCC(=O)N[C@H](C(=O)N1CCC[C@H]1C(N)=O)[C@@H](C)O)[C@@H](C)O)[C@@H](C)O)[C@@H](C)O` [CALCITONIN SALMON], the Hypocalcemic activity was 4500 IU mg-1.
